Data as given in patent publication US20230054458A1, “ANTI-CLAUDIN ANTIBODY-DRUG CONJUGATE AND PHARMACEUTICAL USE THEREOF” (JIANGSU HENGRUI MEDICINE CO., LTD., priority 2019, published 2023).
Like-named read-outs stand apart in the source and are kept apart here.

Legend:
SK-BR-3 tumor cells = experiment: Inhibition of in vitro proliferation of SK-BR-3 tumor cells (CTG); type: cell-based; settings: Homo sapiens, SK-BR-3, 144 h, read-out: IC50 (nM) SK-BR-3
Experimental: (§1) This experiment was intended to test the inhibitory activity of the pharmaceutical compounds of the present disclosure against the in vitro proliferation of U87MG cells (glioma cells, Cell Bank, Chinese Academy of Sciences, Catalog #TCHu138) and SK-BR-3 tumor cells (human breast cancer cells, ATCC, Catalog #HTB-30). The cells were treated in vitro with a compound at different concentrations. After 6 days of culture, the proliferation of cells was tested using CTG (CellTiter-Glo® Luminescent Cell Viability Assay, Promega, Catalog #G7573) reagents, and the in vitro activity of the compound was evaluated according to the IC50 value.
(§2) The method of testing the inhibition of the in vitro proliferation of U87MG cells was described below as an example for the method of assaying for the inhibitory activity of the compounds of the present disclosure against the in vitro proliferation of tumor cells. The method is also applicable to, but not limited to, tests for inhibitory activity against the in vitro proliferation of other tumor cells.
(§3) 1. Cell culture: U87MG and SK-BR-3 cells were cultured in EMEM medium (GE, Catalog #SH30024.01) containing 10% FBS and McCoy's 5A medium (Gibco, Catalog #16600-108) containing 10% FBS, respectively.
(§4) 2. Preparation of cells. U87MG and SK-BR-3 cells growing at log phase were washed once with PBS (phosphate buffer, Shanghai BasalMedia Technologies Co., Ltd.) and then digested with 2-3 mL of trypsin (0.25% Trypsin-EDTA (1×), Gibico, Life Technologies) for 2-3 min. After the cells were completely digested, 10-15 mL of cell culture media were added to elute the digested cells. The mixtures were centrifuged at 1000 rpm for 5 min, and the supernatants were discarded. Then the cells were resuspended in 10-20 mL of cell culture media to give single-cell suspensions.
3. Cell plating. […]
(§5) 7. Plate reading. The 96-well cell culture plate was taken out and tested in a microplate reader (BMG labtech, PHERAstar FS) for chemiluminescence.
(§6) Data were processed and analyzed using Microsoft Excel and Graphpad Prism 5.

U87MG cells = experiment: Inhibition of in vitro proliferation of U87MG cells (CTG); type: cell-based; settings: Homo sapiens, U-87 MG, 144 h, read-out: IC50 (nM) U87
Experimental: as §1, §2, §3, §4
3. Cell plating. The U87MG and SK-BR-3 single-cell suspensions were each well mixed and adjusted with cell culture media to cell densities of 2.75×10^3 cells/mL and 8.25×10^3 cells/mL, respectively. The adjusted cell suspensions were each well mixed and added to 96-well cell culture plates at 180 μL/well. To each of the peripheral wells of the 96-well plates was added 200 μL of media only. The plate was incubated in an incubator for 24 h (37° C., 5% CO2).
4. Preparation of compounds. A compound was dissolved in DMSO (dimethyl sulfoxide, Shanghai Titan Scientific Co., Ltd.) to prepare a stock solution at an initial concentration of 10 mM.
Small molecule compounds were prepared at an initial concentration of 500 nM as follows.
Different test samples at concentration 100 μM (30 μL) were added to the first column of a 96-well U-bottom plate, and 20 μL of DMSO was added to each well of the second column through the eleventh column. The samples in the first column (10 μL) were added to the 20 μL of DMSO in the second column, and the mixtures were well mixed. The mixtures (10 μL) were added to the third column, and so on to the tenth column. The drugs in the plate (5 μL per well) were transferred to EMEM media (95 μL), and the mixtures were well mixed for later use.
5. Sample addition. The test samples prepared at different concentrations (20 μL) were added to a culture plate, with two duplicate wells set for each sample. […]
as §5, §6

[1] = in vitro proliferation, 6 days, CTG

Row | Structure (SMILES) | IC50 (U87MG cells; [1]) [nM] | IC50 (SK-BR-3 tumor cells) [nM] | IC50 (U87MG cells) [nM] | also measured
1 | CC[C@@]1(O)C(=O)OCc2c1cc1n(c2=O)Cc2c-1nc1cc(F)c(C)c3c1c2[C@@H](NC(=O)[C@H](O)C1CC1)CC3 [(R)-2-cyclopropyl-N-((1S,9S)-9-ethyl-5-fluoro-9-hydroxy-4-methyl-10,13-dioxo-2,3,9,10,13,15-hexahydro-1H,12H-benzo[de]pyrano[3′,4′:6,7]indolizino[1,2-b]quinolin-1-yl)-2-hydroxyacetamide] | 0.86 |  |  | IC50 (SK-BR-3 tumor cells; [1]): 0.33 nM
2 | CC[C@@]1(O)C(=O)OCc2c1cc1n(c2=O)Cc2c-1nc1cc(F)c(C)c3c1c2[C@@H](NC(=O)C1(O)CC1)CC3 [Example 1, N-((1S,9S)-9-ethyl-5-fluoro-9-hydroxy-4-methyl-10,13-dioxo-2,3,9,10,13,15-hexahydro-1H,12H-benzo[de]pyrano[3′,4′:6,7]indolizino[1,2-b]quinolin-1-yl)-1-hydroxycyclopropane-1-carboxamide] |  | 0.12 | 0.23 | 
3 | CC[C@@]1(O)C(=O)OCc2c1cc1n(c2=O)Cc2c-1nc1cc(F)c(C)c3c1c2[C@@H](NC(=O)C1(O)CCCC1)CC3 [Example 4, N-((1S,9S)-9-ethyl-5-fluoro-9-hydroxy-4-methyl-10,13-dioxo-2,3,9,10,13,15-hexahydro-1H,12H-benzo[de]pyrano[3′,4′:6,7]indolizino[1,2-b]quinolin-1-yl)-1-hydroxycyclopentane-1-carboxamide] |  | 1.9 |  | 
4 | CC[C@@]1(O)C(=O)OCc2c1cc1n(c2=O)Cc2c-1nc1cc(F)c(C)c3c1c2[C@@H](NC(=O)C1(CO)CC1)CC3 [Example 5, N-((1S,9S)-9-ethyl-5-fluoro-9-hydroxy-4-methyl-10,13-dioxo-2,3,9,10,13,15-hexahydro-1H,12H-benzo[de]pyrano[3′,4′:6,7]indolizino[1,2-b]quinolin-1-yl)-1-(hydroxymethyl)cyclopropane-1-carboxamide] |  |  | 4.81 | 
5 | CC[C@@]1(O)C(=O)OCc2c1cc1n(c2=O)Cc2c-1nc1cc(F)c(C)c3c1c2[C@@H](NC(=O)C1(CO)CCC1)CC3 [Example 6, N-((1S,9S)-9-ethyl-5-fluoro-9-hydroxy-4-methyl-10,13-dioxo-2,3,9,10,13,15-hexahydro-1H,12H-benzo[de]pyrano[3′,4′:6,7]indolizino[1,2-b]quinolin-1-yl)-1-(hydroxymethyl)cyclobutane-1-carboxamide] | 1.83 |  |  | 
6 | CC[C@@]1(O)C(=O)OCc2c1cc1n(c2=O)Cc2c-1nc1cc(F)c(C)c3c1c2[C@@H](NC(=O)C1(O)CCC1)CC3 [Example 7, N-((1S,9S)-9-ethyl-5-fluoro-9-hydroxy-4-methyl-10,13-dioxo-2,3,9,10,13,15-hexahydro-1H,12H-benzo[de]pyrano[3′,4′:6,7]indolizino[1,2-b]quinolin-1-yl)-1-hydroxycyclobutane-1-carboxamide] | 1.95 |  |  | 
